{"source": "patent US12569468B2", "about": "“Use of palovarotene in treatment against HBV virus” (YANG SHENG TANG COMPANY, LTD., priority 2020, dated 2026)", "key": {"[1]": {"tested_on": "HBV", "assay": "Inhibitory effect on HBV infection in infection model HepaRG M14A (drug before infection)", "type": "cell-based, hepatitis B virus", "conditions": "1, 5, 25 μM, treatment before infection", "experimental": "HepaRG was a hepatic progenitor cell line with differentiation potential which was isolated from the tumor tissue of a hepatitis C patient. After two weeks of cell plating, the cellular differentiation was induced with 2% DMSO (2 mL of DMSO was added to per 100 mL of cell culture medium) for two weeks. Finally, about 50% of the cells differentiated into hepatocyte-like cells, and the other 50% of the cells differentiated into cholangiocyte-like cells. Among them, hepatocyte-like cells supported HBV infection with an infection efficiency of about 20%. Through genetic modification of HepaRG, the HNF4A and FoxM1 genes were integrated into HepaRG cells, and a HepaRG M14A cell line that could complete differentiation and support HBV infection independent of DMSO was obtained by screening. (For the construction method of this cell model, please refer to: Zhao Jinghua. Development, Optimization and Preliminary Application of in vitro models supporting HBV Infection [D]. Xiamen University, 2016.)\nThis experiment was carried out in a 24-well cell culture plate. […] About 1.5×10^5 HepaRG M14A cells were plated in each well, and 500 μL of medium D was added to each well. After cell plating, medium D was replaced every 2 days. After 13 days of cell plating, medium D was replaced with drug-containing medium D for drug treatment. After 24 hours of drug treatment, the cells were infected with HBV, and the amount of HBV for infection in each well was 1000 MOI. Before infection, an HBV solution was obtained by diluting HBV in medium E, and the infection volume was 250 μL per well. During infection, the cell supernatant was first removed by suction, the HBV solution was added to the cells, then the cells were incubated for 24 hours, and then the supernatant was collected as the sample of Day 0. Then, the cells were washed three times with PBS warmed in bath at 37° C., and fresh drug-containing medium D (500 μL per well) was used for replacement, then the supernatant was collected every 2 days for detection, and fresh drug-containing medium D was used for replacement, until the 8th day, all the supernatant and cells were collected for related detection. The detection items include HBsAg, HBeAg, HBV DNA, HBV cccDNA, and for the detection method, please refer to Example 1."}, "[2]": {"tested_on": "HBV", "assay": "Therapeutic effect on HepG2-hNTCP 2B1 infected by HBV (drug from day 6 after infection)", "type": "cell-based, hepatitis B virus", "conditions": "drug treatment from 6 days after HBV infection to day 12, Palovarotene at high concentrations (p<0.05), ETV 1 μM, vs blank group", "experimental": "This experiment was carried out in a 24-well culture plate. […] About 1.5×10^5 HepG2-hNTCP 2B1 cells were plated in each well, and 500 μL of medium B was added to each well. After the cells adhered, medium A was used for replacement to perform the induction with Doxycycline during the whole experiment.\n4 Days after the induction with Doxycycline, HBV infection was performed, and the amount of HBV in each well was 100 MOI. Before infection, HBV was diluted in medium C to obtain HBV solution, and the infection volume was 250 μL per well. During infection, the cell supernatant was first removed by suction, the HBV solution was added to the cells, and the cells were incubated for 24 hours, then the supernatant was collected as the sample of Day 0. Then the cells were washed three times with PBS, and fresh medium C was used for replacement. After that, the supernatant was collected every two days for detection, fresh medium C was used for replacement. On the 6th day, fresh drug-containing medium A was used for replacement to start drug treatment, then the supernatant was collected every two days for detection, and fresh drug-containing medium A was used for replacement, until the 12th day, all the supernatant and cells were collected for relevant detection. The detection items included HBsAg, HBeAg, HBV DNA, HBV cccDNA, and for the detection method, please refer to Example 1."}, "[3]": {"tested_on": "HBV cccDNA", "assay": "Southern blot detection of HBV cccDNA in HepAD38", "type": "cell-based, hepatitis B virus", "conditions": "5 μM, 8 days, inhibitory effect inferior to that of control group (ETV 5 μM)", "experimental": "The Southern blot experiment was performed on 6 cm^2 culture plates. About 4.2×10^6 HepAD38 cells were plated in each 6 cm^2 culture plate, and medium G containing tetracycline hydrochloride (Tetracycline) was added. During the experiment, the medium G containing tetracycline hydrochloride was removed, and the drug-containing medium F was added at the same time for drug treatment, in which the treatment concentration of test drug Palovarotene was 5 μM, and the control group used Entecavir (ETV) at a concentration of 5 μM for treatment, and the treatment time was 8 days.\nThe specific Southern blot detection method was carried out with reference to Example 3."}, "[4]": {"tested_on": "human primary hepatocytes", "assay": "Safety assessment, CCK-8 cell activity, human primary hepatocytes", "type": "cell-based", "conditions": "1 μM, 5 μM and 25 μM, 6 days treatment", "experimental": "This experiment was carried out in a 96-well culture plate, with 8×10^4 corresponding cells plated in each well, and the corresponding medium volume was 100 μL, in which each drug to be tested in the HepG2-hNTCP 2B1, HepaRG M14A and primary hepatocyte experimental groups had three final concentrations of 1 μM, 5 μM and 25 μM, each drug to be tested in the HepAD38 cell experimental group had two final concentrations of 1 μM and 5 μM (the drug was diluted with the corresponding medium to the final concentrations, specifically please refer to Example 1, Example 2, Example 4 and Example 5), and to the blank group the same volume of culture medium without drug was added. After the cells had grown to a suitable density, drug was added to perform treatment for 6 days, during which, the medium was changed every two days with fresh drug-containing medium. After the drug treatment, 110 μL of medium containing Beyotime CCK-8 cell activity detection reagent (purchased from Beyotime, Art. No. C0038) (the volume ratio of medium to CCK-8 reagent was 100:10) was used for replacement, the cells were incubated at 37° C. for 30 min, and then all the supernatant was collected for detection of absorbance. The absorbance value was read on PHOMO microplate reader purchased from Zhengzhou Autobio."}}}
{"smiles": "CC1(C)CCC(C)(C)c2cc(Cn3cccn3)c(/C=C/c3ccc(C(=O)O)cc3)cc21", "note": "[Palovarotene]", "values": [{"measurement": "level of intracellular HBV DNA", "setting": "[1]; to day 8, p<0.0001", "result": "significantly reduce"}, {"measurement": "level of intracellular cccDNA", "setting": "[1]; to day 8, p<0.0001", "result": "significantly reduce"}, {"measurement": "level of HBeAg in cell supernatant", "setting": "[1]; to day 8, p<0.05", "result": "significantly reduce"}, {"measurement": "level of HBsAg in cell supernatant", "setting": "[1]; to day 8, p<0.05", "result": "significantly reduce"}, {"measurement": "HBeAg", "setting": "[2]", "result": "significant inhibitory effect"}, {"measurement": "level of HBV DNA", "setting": "[2]", "result": "significantly reduce"}, {"measurement": "level of HBV cccDNA", "setting": "[2]", "result": "significantly reduce"}, {"measurement": "level of HBV cccDNA (Southern blot)", "setting": "[3]", "result": "significantly inhibit"}, {"measurement": "CCK-8 absorbance value (cell activity) vs blank group", "setting": "[4]", "result": "not significantly different"}]}
